Measurements as given in patent US20020133846A1, “Method for protecting plants” (priority 1996, published 2002).
Like-named read-outs stand apart in the source and are kept apart here.

Legend:
[1] = tested on: Phytophthora infestans; format: in vivo
[2] = tested on: Pseudoperonospora cubensis; assay: Action against Pseudoperonospora cubensis in cucumbers; format: in vivo
[3] = tested on: Peronospora parasitica NoCo2; assay: Action against Peronospora parasitica NoCo2 in Arabidopsis thaliana (Col-0), rRNA fungal probe; format: in vivo; settings: Table 29, Col-0, metalaxyl alone 0.1 mg/l
[4] = tested on: Peronospora parasitica Emwa; assay: Action against Peronospora parasitica Emwa in Arabidopsis thaliana (Ws), rRNA fungal probe; format: in vivo
[5] = tested on: Peronospora parasitica NoCo2; assay: whole plant or invertebrate; format: in vivo; settings: Hyaloperonospora parasitica, in Arabidopsis thaliana, read-out: Fungal Growth Inhibition % O (observed), Table 33, wt Col-0, metalaxyl 12.5 mg/l
[6] = tested on: Peronospora parasitica isolate Emwa; assay: Action against Peronospora parasitica in Arabidopsis overexpressing NIM1 (lines 6E, 7C) and wild-type Ws; format: in vivo; settings: for inhibition at 500 µg/mL: fosetyl 0.5 g/l; for inhibition at 5000 µg/mL: fosetyl 5.0 g/l
From the text: The plant lines used in this example (6E and 7C) were generated from transformation of wild-type Arabidopsis thaliana plants (ecotype Ws) with the BamHI-HindIII NIM1 genomic fragment (SEQ ID NO:1—bases 1249-5655), as described above in Example 21. The fungicides metalaxyl, fosetyl, and copper hydroxide, formulated as 25%, 80%, and 70% active ingredient (ai), respectively, with a wettable powder carrier, were applied as fine mist to leaves of three week-old transgenic Ws plants constitutively expressing the NIM1 gene. The wettable powder alone was applied as a control. Three days later, plants were inoculated with a Peronospora parasitica isolate Emwa conidial suspension (1-2×10^5 spores/ml), as described in Delaney et al. (1995). Following inoculation, plants were covered to maintain high humidity and were placed in a Percival growth chamber at 17° C. with a 14-hr day/10-hr night cycle (Uknes et al., 1993). Tissue was harvested 8 days after inoculation.
Fungal infection progression was followed for 12 days by viewing under a dissecting microscope to score development of conidiophores (Delaney, et al. (1994); Dietrich, et al. (1994)). Lactophenoltrypan blue staining of individual leaves was carried out to observe fungal growth within leaf tissue. Fungal growth was quantified using a rRNA fungal probe obtained by PCR according to White et al. (1990; PCR Protocols: A guide to Methods and Application, 315-322) using primers NS1 and NS2 and P. parasitica EmWa DNA as templates. RNA was purified from frozen tissue by phenol/chloroform extraction following lithium chloride precipitation (Lagrimini et al, 1987: PNAS, 84: 7542-7546). Samples (7.5 μg) were separated by electrophoresis through formaldehyde agarose gels and blotted to nylon membranes (Hybond-N+, Amersham) as described by Ausbel et al. (1987). Hybridizations and washing were according to Church and Gilbert (1984, PNAS, 81: 1991-1995). Relative amounts of the transcript were determined using a Phosphor Imager (Molecular Dynamics, Sunnyvale, Calif.) following manufacturers instructions. Sample loading was normalized by probing stripped filter blots with the constitutively expressed b-tubulin Arabidopsis cDNA.

[7] = tested on: Pyricularia oryzae; format: in vivo
[8] = tested on: Pyricularia oryzae; format: in vivo; remark: listed apart in the source
[9] = tested on: Colletotrichum lagenarium; assay: Action against Colletotrichum lagenarium on Cucumis sativus L., foliar application; format: in vivo
[10] = tested on: Colletotrichum lagenarium; assay: Action against Colletotrichum lagenarium on Cucumis sativus L., soil application; format: in vivo
[11] = tested on: Cercospora nicotianae; assay: Action against Cercospora nicotianae on tobacco plants; format: in vivo
[12] = tested on: Puccinia recondita; assay: Action against Puccinia recondita in wheat
Experimental: 7-day-old wheat plants were sprayed to drip point with a spray mixture prepared from a formulated active ingredient, or combination of active ingredients. After 4 days, the treated plants were infected with a conidia suspension of the fungus, and the treated plants were subsequently incubated for 2 days at a relative atmospheric humidity of 90-100% and 20 C. 10 days post-infection, the fungus infestation was assessed.

[13] = tested on: Erysiphe graminis; assay: Action against Erysiphe graminis on barley (residual-protective / systemic)
Experimental: Residual-protective action: Barley plants about 8 cm in height were sprayed to drip point with an aqueous spray mixture (max. 0.02 % active ingredient) and were dusted 3 to 4 days later with conidia of the fungus. The infected plants were stood in a greenhouse at 22°. Fungus infestation was generally evaluated 10 days after infection.
Systemic action: Barley plants about 8 cm in height were watered with an aqueous spray mixture (max. 0.002 % active ingredient, based on the volume of the soil). […] The plants were dusted with conidia of the fungus 3 to 4 days later. The infected plants were stood in a greenhouse at 22°. Fungus infestation was generally evaluated 10 days after infection.

[14] = tested on: Peronospora tabacina; assay: Action against Peronospora tabacina on tobacco plants
Experimental: Tobacco plants (6 weeks old) were sprayed with a formulated solution of the test compound. Four days after treatment, the plants were inoculated with a sporangia suspension of the fungus, kept at high humidity for 4 to 5 days and then incubated further under a normal day/night sequence. Evaluation of the symptoms in the tests was based on the leaf surface infested with fungus. The infestation of the untreated plants corresponded to 0 % action.

[15] = tested on: Pyricularia oryzae; format: in vivo; remark: listed apart in the source
[16] = Hyaloperonospora parasitica, in Arabidopsis thaliana, Table 37, wt Ws, read-out: Fungal Growth Inhibition % O (observed)
[17] = Hyaloperonospora parasitica, in Arabidopsis thaliana, wild-type Ws (Table 38), read-out: Fungal Growth Inhibition % O (observed)

Compound: COCC(=O)N(c1c(C)cccc1C)C(C)C(=O)OC (racemic) [metalaxyl]
- % action O (observed) ([1]; Table 25, comp. II alone 0.1 mg a.i. per liter): 13%
- % action O (observed) ([1]; Table 25, comp. II alone 1 mg a.i. per liter): 23%
- % action O (observed) ([1]; Table 25, comp. II alone 10 mg a.i. per liter): 35%
- % action O (observed) ([1]; Table 25, comp. II alone 50 mg a.i. per liter): 68%
- % action O (observed) ([1]; Table 26, comp. II alone 1 mg a.i. per liter): 13%
- % action O (observed) ([1]; Table 26, comp. II alone 10 mg a.i. per liter): 33%
- % action O (observed) ([1]; Table 26, comp. II alone 50 mg a.i. per liter): 63%
- % action O (observed) ([1]; Table 26, comp. II alone 100 mg a.i. per liter): 83%
- % action O (observed) ([2]; Table 27, comp. II alone 0.5 mg a.i. per liter): 31%
- % action O (observed) ([2]; Table 27, comp. II alone 5 mg a.i. per liter): 66%
- % action O (observed) ([2]; Table 27, comp. II alone 50 mg a.i. per liter): 91%
- inhibition at 0.1 µg/mL ([3]; Hyaloperonospora parasitica, in Arabidopsis thaliana, read-out: Fungal Growth Inhibition % O (observed)): 0%
- Fungal Growth Inhibition % O (observed) [3]: no fungal growth inhibition
- inhibition at 0.1 µg/mL ([4]; Hyaloperonospora parasitica, in Arabidopsis thaliana, Table 30, Ws, metalaxyl alone 0.1 mg/l, read-out: Fungal Growth Inhibition % O (observed)): 50%
- inhibition at 0.5 µg/mL ([4]; Hyaloperonospora parasitica, in Arabidopsis thaliana, Table 30, Ws, metalaxyl alone 0.5 mg/l, read-out: Fungal Growth Inhibition % O (observed)): 50%
- inhibition at 2.5 µg/mL ([4]; Hyaloperonospora parasitica, in Arabidopsis thaliana, Table 30, Ws, metalaxyl alone 2.5 mg/l, read-out: Fungal Growth Inhibition % O (observed)): 75%
- inhibition at 12.5 µg/mL [5]: 52.7%
- inhibition at 1.2 µg/mL ([6]; Hyaloperonospora parasitica, in Arabidopsis thaliana, Table 36, wt Ws, metalaxyl 0.0012 g/l, read-out: Fungal Growth Inhibition % O (observed)): 27%
- inhibition at 12.5 µg/mL ([6]; Hyaloperonospora parasitica, in Arabidopsis thaliana, Table 36, wt Ws, metalaxyl 0.0125 g/l, read-out: Fungal Growth Inhibition % O (observed)): 59%

Compound: O=C1CCc2cccc3c2N1CC3 [Compound IIJ, 1,2,5,6-tetrahydro-4H-pyrrolo[3,2,1-ij]quinolin-4-one]
- % action O (observed) ([7]; Table 14, comp. II alone 0.75 kg a.i. per ha): 46%
- % action O (observed) ([7]; Table 14, comp. II alone 1.5 kg a.i. per ha): 82%

Compound: [Cu+2].[OH-].[OH-] [Cu(OH)2, copper hydroxide]
- Fungal Growth Inhibition % O (observed) ([4]; Table 32, Ws, Cu(OH)2 alone 0.01 g/l): 0%
- Fungal Growth Inhibition % O (observed) ([6]; Cu(OH)2 0.02 g/l, wild-type Ws (Table 39)): 0%
- Fungal Growth Inhibition % O (observed) ([6]; Cu(OH)2 0.02 g/l, wild-type Ws (Table 40)): 0%
- Fungal Growth Inhibition % O (observed) ([6]; Cu(OH)2 0.2 g/l, wild-type Ws (Table 39)): 0%
- Fungal Growth Inhibition % O (observed) ([6]; Cu(OH)2 0.2 g/l, wild-type Ws (Table 40)): 0%
- Fungal Growth Inhibition % O (observed) ([6]; Cu(OH)2 2.0 g/l, wild-type Ws (Table 39)): 0%
- Fungal Growth Inhibition % O (observed) ([6]; Cu(OH)2 2.0 g/l, wild-type Ws (Table 40)): 0%

Compound: CCC1(C(=O)NC(C)c2ccc(Cl)cc2)C(C)C1(Cl)Cl [KTU 3616, (1R,3S/1S,3R)-2,2-dichloro-N-[(R)-1-(4-chlorophenyl)ethyl]-1-ethyl-3-methylcyclopropanecarboxamide]
- % action O (observed) ([8]; Table 13, comp. II alone 0.02 ppm): 0%
- % action O (observed) ([8]; Table 13, comp. II alone 0.06 ppm): 28%
- % action O (observed) ([8]; Table 13, comp. II alone 0.2 ppm): 47%
- % action O (observed) ([8]; Table 13, comp. II alone 0.6 ppm): 79%
- % action O (observed) ([8]; Table 13, comp. II alone 2 ppm): 83%
- % action O (observed) ([8]; Table 13, comp. II alone 6 ppm): 91%

Compound: O=C(O)c1cccc2nnsc12 [benzothiadiazole-7-carboxylic acid]
- % action O (observed) ([9]; Table 4, comp. I alone 0.2 ppm): 5%
- % action O (observed) ([9]; Table 4, comp. I alone 2 ppm): 22%
- % action O (observed) ([9]; Table 6, comp. I alone 0.2 ppm): 3%
- % action O (observed) ([9]; Table 6, comp. I alone 0.6 ppm): 51%
- % action O (observed) ([9]; Table 7, comp. I alone 0.06 ppm): 16%
- % action O (observed) ([9]; Table 7, comp. I alone 0.2 ppm): 22%
- % action O (observed) ([9]; Table 7, comp. I alone 6 ppm): 60%
- % action O (observed) ([10]; Table 5, comp. I alone 0.006 ppm): 0%
- % action O (observed) ([10]; Table 5, comp. I alone 0.02 ppm): 40%
- % action O (observed) ([10]; Table 5, comp. I alone 0.06 ppm): 49%
- % action O (observed) ([10]; Table 5, comp. I alone 0.2 ppm): 91%
- % action O (observed) ([11]; Table 11, comp. I alone 0.2 kg a.i. per ha): 0%
- % action O (observed) ([11]; Table 11, comp. I alone 0.6 kg a.i. per ha): 3%
- % action O (observed) ([11]; Table 11, comp. I alone 2 kg a.i. per ha): 69%
- % action O (observed) ([11]; Table 11, comp. I alone 6 kg a.i. per ha): 79%
- % action O (observed) ([11]; Table 12, comp. I alone 2 kg a.i. per ha): 69%
- % action O (observed) ([11]; Table 12, comp. I alone 6 kg a.i. per ha): 79%
- % action O (observed) ([11]; Table 12, comp. I alone 20 kg a.i. per ha): 100%
- % action O (observed) ([1]; Table 26, comp. I alone 0.1 mg a.i. per liter): 0%
- % action O (observed) ([1]; Table 26, comp. I alone 0.5 mg a.i. per liter): 9%
- % action O (observed) ([1]; Table 26, comp. I alone 1 mg a.i. per liter): 22%
- % action O (observed) ([1]; Table 26, comp. I alone 5 mg a.i. per liter): 45%
- % action O (observed) ([2]; Table 27, comp. I alone 0.05 mg a.i. per liter): 0%
- % action O (observed) ([2]; Table 27, comp. I alone 0.5 mg a.i. per liter): 6%
- % action O (observed) ([2]; Table 27, comp. I alone 5 mg a.i. per liter): 66%
- % action O (observed) ([12]; Table 20, comp. I alone 6 kg a.i. per ha): 20%
- % action O (observed) ([12]; Table 20, comp. I alone 20 kg a.i. per ha): 40%
- % action O (observed) ([13]; Table 1, comp. I alone 0.6 ppm): 0%
- % action O (observed) ([13]; Table 1, comp. I alone 2 ppm): 40%
- % action O (observed) ([13]; Table 1, comp. I alone 6 ppm): 89%
- % action O (observed) ([13]; Table 2, comp. I alone 0.6 ppm): 14%
- % action O (observed) ([13]; Table 2, comp. I alone 2 ppm): 27%

Compound: COc1ccc(C(=CC(=O)N2CCOCC2)c2ccc(Cl)cc2)cc1OC [dimethomorph, 4-[3-(4-chlorophenyl)-3-(3,4-dimethoxyphenyl)acryloyl]morpholine]
- % action O (observed) ([14]; Table 28, comp. II alone 0.3 ppm): 52%
- % action O (observed) ([14]; Table 28, comp. II alone 1 ppm): 52%

Compound: CC(Cc1ccc(C(C)(C)C)cc1)CN1CCCCC1 (stereo not shown) [fenpropidine, 1-[3-(4-tert-butylphenyl)-2-methylpropyl]-piperidine]
- % action O (observed) ([12]; Table 20, comp. II alone 20 kg a.i. per ha): 40%
- % action O (observed) ([12]; Table 20, comp. II alone 60 kg a.i. per ha): 60%

Compound: CCO[PH](=O)O [fosetyl, ethyl hydrogen phosphonate]
- inhibition at 40 µg/mL ([4]; Hyaloperonospora parasitica, in Arabidopsis thaliana, Table 31, Ws, fosetyl alone 0.04 g/l, read-out: Fungal Growth Inhibition % O (observed)): 0%
- inhibition at 200 µg/mL ([4]; Hyaloperonospora parasitica, in Arabidopsis thaliana, Table 31, Ws, fosetyl alone 0.2 g/l, read-out: Fungal Growth Inhibition % O (observed)): 10%
- inhibition at 1000 µg/mL ([4]; Hyaloperonospora parasitica, in Arabidopsis thaliana, Table 31, Ws, fosetyl alone 1.0 g/l, read-out: Fungal Growth Inhibition % O (observed)): 40%
- inhibition at 50 µg/mL ([6]; Hyaloperonospora parasitica, in Arabidopsis thaliana, Table 37, wt Ws, fosetyl 0.05 g/l, read-out: Fungal Growth Inhibition % O (observed)): 0%
- inhibition at 500 µg/mL [6, 16]: 2%
- inhibition at 5000 µg/mL [6, 16]: 7%
- inhibition at 500 µg/mL [6, 17]: 2%
- inhibition at 5000 µg/mL [6, 17]: 7%

Compound: Cc1cccc2sc3nncn3c12 [tricyclazole, 5-methyl-1,2,4-triazolo[3,4-b][1,3]benzothiazole]
- % action O (observed) ([15]; Table 15, comp. II alone 0.1 ppm): 32%
- % action O (observed) ([15]; Table 15, comp. II alone 0.25 ppm): 48%
- % action O (observed) ([15]; Table 15, comp. II alone 0.5 ppm): 71%
- % action O (observed) ([15]; Table 15, comp. II alone 1 ppm): 74%
